According to patent publication US20160166569A1, “METHOD FOR TREATING SKIN THICKENING” (GALDERMA RESEARCH & DEVELOPMENT, priority 2013, published 2016):
Like-named read-outs stand apart in the source and are kept apart here.

Tested on: UV-induced skin thickening
Conditions: for other skin disorders induced by UV-irradiation (low grade of erythema or flaking, white raised area on skin, wrinkling): compared to vehicle control
Protocol: Albino hairless SKHI-hr mice (36/sex/group) were treated for 40 weeks with UVR and brimonidine gel or vehicle according to the design in Table 11. […] Topical treatments were performed approximately one hour before UVR on Monday, Wednesday and Friday of each week and approximately one hour after UVR Tuesday and Thursday of each week.
N/N=Total number of observations/number of mice with observation

## Brc1c(NC2=NCCN2)ccc2nccnc12 [brimonidine, (5-bromo-quinoxalin-6-yl)-(4,5-dihydro-1H-imidazol-2-yl)-amine]
0.18% (w/w) topical
  UV-induced skin thickness, statistical effect: did not statistically reduce
  incidence of skin thickening compared to the UV control group: observably lower
1% (w/w) topical
  UV-induced skin thickness, statistical effect compared to the UV control group: statistically reduced
  other skin disorders induced by UV-irradiation (low grade of erythema or flaking, white raised area on skin, wrinkling): reduced
2% (w/w) topical
  UV-induced skin thickness, statistical effect compared to the UV control group: statistically reduced
  other skin disorders induced by UV-irradiation (low grade of erythema or flaking, white raised area on skin, wrinkling): reduced
Mice exposed to UV radiation, summary statement
  skin thickening or other skin disorders: significant reduction
Topical application at 0.18%, 1% and 2% (w/w), UVR 600 RBU/week
  UV-induced skin thickening: dose-dependent reduction
